Holding throughout (type): cell-based, human
Experiment [1] deals with TM4SF5-expressing cells (SNU449T7). Briefly: 2D cell growth/proliferation. The following applies: 2D environment, drug every 24 hours (FIG. 3a). How it is done:
The drugs treated were the positive control drug TSAHC or the ST-1-025 isoxazole compound at the given concentrations. From the time of starting culture (0 day), (FIG. 3a) in the case of 2D culture, the number of cells was measured after treating with the drug every 24 hours, or (FIG. 3b) in a 3D environment, the proliferation of cells (spheres) was observed and photographed with an optical microscope on the 5th and 7th days after a single drug treatment at the start of culture.

The subject of experiment [2] is SNU761-TM4SF5. Briefly: Western blotting of SLAMF7 expression, TM4SF5-expressing SNU761 cells. The following applies: for expression level of SLAMF7 (WCL): whole-cell lysates, 24 hours (FIG. 15e-f). The protocol: Cell extracts were obtained from cells grown to a density of 70-80% without any treatment, or from cells treated with vehicle DMSO or drugs at the given concentrations for 24 hours. For the extract of hepatocytes or liver cancer cells, a lysis buffer (150 mM NaCl, 1% NP-40, 50 mM Tris-HCl, 0.25% sodium deoxycholate, pH 7.4) including a protease inhibitor cocktail (GenDEPOT) was used. In addition, after washing animal liver tissue twice with PBS, SDS, Na3VO4, and protease inhibitor cocktails (GenDEPOT) were added to a lysis buffer [50 mM Tris-HCl, pH 7.4, 1% NP40, 0.25% sodium deoxycholate, 150 mM NaCl, 1 mM EDTA (based on 500 ml)], followed by treatment at 4°C for 15 minutes. After centrifugation at 13,000 rpm at 4°C for 30 minutes, only the supernatant was transferred to a new microcentrifuge tube. After quantification using BCA reagent (Thermo Scientific), a 4 × sample buffer [100% glycerol 4 ml, Tris-HCl, pH 6.8, 2.4 ml, SDS 0.8 g, Bromophenol blue 4 mg, betamercaptoethanol 0.4 ml, H2O 3.1 ml (based on 10 ml)] was added, followed by boiling at 100°C for 5 minutes. After performing SDS-PAGE electrophoresis with the above samples and transferring them to Nitrocellulose Membranes Protran™ nitrocellulose membranes (Whatman), pre-treatment was performed with 5% skim milk for 1 hour. After pre-treatment, primary antibodies of p-FAK(Y861) (SC-16663), p-FAK(Y577) (SC-16665), c-Src (SC-8056), STAT3 (SC-8019), p-AKT 1/2/3(S473) (SC-7985), STATS (SC-835), Laminin γ2 (SC-393225), COL1A1 (SC-28657), CCL5(RANTES) (SC-514019) CCL20(MIP-3α) (SC-517441), SIRT1 (SC-74465), ChREBP (SC-515922), SREBP1 (SC-366513), DGAT1 (SC-271934), DGAT2 (SC-293211), MICA/B (SC-137242), SLAMF7 (SC-390840), α-tublin (SC-5286), β-actin (SC-47778), FUCA (SC-365496) (the above from Santa Cruz Biotech, USA), p-FAK(Y397) (cat # 611723), FAK (cat # 610088), p27 (cat # 610242) (the above from BD Transduction, USA), p-FAK(Y925) (#3284) p-c-Src(Y416) (#2101), p-STAT3(Y705) (#9145), p70S6K1 (#9202), p-p70S6K1(T389) (#9205), p-STAT5(Y694) (#9314), ACC (#3676), FASN (#3189), CPT1A (#12252), p-ACC(S79) (#11818), HA (#3724), PD-L1 (#13684), PD-1 (#86163), p-ERK1/2(T202/Y204) (#9101s), ERK1/2 (#9102s) (the above from Cell Signaling Tech., USA), pS10p27(S10) (ab62364), human SLAMF6 (ab224201), TIGIT (ab233404), CD34 (ab81289) (the above from Abcam, UK), mouse SLAMF6 (PA5-87823), NKG2D (PA5-102038) (the above from Thermofisher, USA), α-SMA (Sigma Aldrich, A5228), CCL2 (Invitrogen, MA5-17040), and CD155(PVR) (Biolegend, 337601), HA (Biolegend, USA), Strep-HRP(horse-radish peroxidase), StrepMAB-HRP (IBA, USA), AFP (FineTest, FNab00203) were reacted at 4°C for 15 hours. The next day, secondary antibodies were reacted, and development was performed on X-ray film using ECL (Pierce, USA). […]
After 24 hours, vehicle DMSO, drug ST-1-025, or ST-5-002 was treated at the given concentrations. […] (f) After treating NK92-EV or NK92-TM4SF5 cells with DMSO or drugs ST-2-001 (1 nM), ST-3-005 (10 nM or 1 µM), ST-5-001, or ST-5-002 (100 nM or 1 µM) for 24 hours, the expression of SLAMF7 expressed on the cell surface was analyzed through immunostaining using flow cytometry. The expression level of SLAMF7 was confirmed by adding a SLAMF7 antibody to bind with SLAMF7 and then measuring the fluorescence linked to the SLAMF7 antibody using flow cytometry. […]
(In general: In western blotting, separated proteins are transferred to a membrane and probed.)

The subject of experiment [3] is SNU449-TM4SF5 and Huh7-Con. The experiment in a line: qRT-PCR/Western blotting of laminin γ2, AFP and liver cancer markers in TM4SF5-expressing hepatocytes. The conditions noted are these: 2.5 µM, 24 hours (FIG. 8h-i). Background: In qPCR the cycle at which signal appears reflects the starting amount.

For the compound `COc1ccc(-c2cc(-c3ccc(N)cc3)no2)cc1` [ST-1-025, 4-(5-(4-methoxyphenyl)isoxazole-3-yl)aniline], in experiment [1], the growth or proliferation entry is “decreased”.
On the same count and under the same terms, under `Cc1ccc(S(=O)(=O)Nc2ccc(C(=O)/C=C/c3ccc(O)cc3)cc2)cc1` [TSAHC, 4'-(p-toluenesulfonylamino)-4-hydroxychalcone, reference compound] stands “decreased”.
On to `COc1cccc(-c2cc(-c3ccc(NC(C)=O)cc3)no2)c1` [ST-3-001, N-(4-(5-(3-methoxyphenyl)isoxazole-3-yl)phenyl)acetamide], for which the “expression level of SLAMF7 (WCL)” value in experiment [2] is “did not show a recovery”.
Consider `Cc1ccc(C(=O)Nc2ccc(-c3cc(-c4ccc(O)cc4)no3)cc2)cc1` [ST-5-002, N-(4-(3-(4-hydroxyphenyl)isoxazole-5-yl)phenyl)-4-methylbenzamide], for which the “elevated expressions of laminin γ2, AFP, phosphorylation of STAT3, FUCA and CD34” value in experiment [3] is “inhibited”. Further, in experiment [2] (SNU761-TM4SF5 (FIG. 13d)), the SLAMF7 expression level result is listed as “less lowered or remained high”. The “SLAMF7 expression decreased due to TM4SF5” value in experiment [2] (SNU761 with FLAG-SLAMF7 and HA-TM4SF5, given concentrations, 24 hours (FIG. 15d)) is given as “showed a pattern of recovery”. For the same compound, in experiment [2], the “expression level of SLAMF7 (WCL)” value was “increasing again”.
